Reference: US11351218B2, “Composition for preventing or treating glioblastoma comprising Platycodon grandiflorum A. De Candolle, Scutellaria baicalensis, Phellodendron amurense Ruprecht or Rubus coreanus” (University-Industry Cooperation Group of Kyung Hee …, priority 2019, dated 2022)

What was measured:
U373 cells = test: GFP-LC3B puncta assay (confocal microscopy), U373 cells; assay type: cell-based, human; settings: U373, 10 μM PD, 24 hours
Protocol: The cells transiently expressing GFP-LC3 (green) were treated with DMSO or PD (10 μM) for 24 hours and analyzed by confocal microscopy. Nuclei were stained with DAPI (blue). Quantification shown on the right graph represents mean GFP-LC3B puncta per cells from three independent experiments±SD.
Cultured cells seeded in plates with microscope coverslips were transfected with a pGFP-LC3B plasmid using Lipofectamine 3000 (Thermo Fisher Scientific) according to the manufacturer's instructions. After the transfection, the cells were fixed with 4% paraformaldehyde (PFA) in phosphate-buffered saline (PBS) at room temperature for 10 minutes. The images were examined under a laser confocal microscope (Zeiss, Oberkochen, Baden-Wurttemberg, Germany).
To confirm the western blot data, the LC3B accumulation in GBM cells was monitored using a confocal microscope. Both U87MG and U373MG cells transfected with a green fluorescent protein (GFP)-tagged LC3 expression plasmid were treated with 10 μM PD for 24 hours and examined under a confocal microscope.

[1] = test system: p-ULK1 (Ser757), p-S6K (Thr389), p-AKT (Ser473), p-JNK1, Beclin, ATG7; test: Immunoblot of mTOR/MAPK and autophagosome assembly proteins in GBM cells; assay type: cell-based, human; settings: PD 0-10 μM, 24 hours
Protocol: FIGS. 10A to 10D show the results that PD-mediated autophagy inhibition is independent of mTOR and MAPK signaling pathways. FIGS. 10A to 10C show the results in which cells were treated with PD (0 μM, 0.5 μM, 1 μM, 5 μM, and 10 μM) for 24 hours. The immunoblot analyses for p-ULK1 (Ser757), ULK1, p-S6K (Thr389), p-AKT (Ser473), ERK2, P-ERK, p-JNK1, Beclin, and ATG7 were performed using lysates from GBMs. […] Total protein extracts were analyzed by immunoblot analyses for p-ERK, LC3B, and SQSTM1. GAPDH was used as an internal control.
Cells treated with the concentrations and materials described in FIGS. 1-3B, 7, 8, 10, 13, 16, 18, and 20 were lysed in buffer containing 20 mM Tris-HCl (pH 7.5), 150 mM NaCl, 1 mM EDTA, 1 mM Na2EDTA, 1 mM EGTA, 1% NP-40, 1% sodium deoxycholate, 1 mM Na3VO4, 1 mM MPI, 1 mM PMSF, and PI cocktails for 15 to 20 minutes on ice. Cell lysates were separated by SDS-PAGE and transferred to nitrocellulose membranes. Immunodetection was performed with the following primary antibodies: rabbit anti-LC3B, rabbit anti-cathepsin B, rabbit-anti GAPDH (Cell Signaling Technology, Danvers, Mass.), mouse anti-SQSTM1/p62, and goat anti-cathepsin D (Santa CruzKPL, Gaithersburg, Md., USA) were incubated at room temperature for 1 hour. The protein bands were detected with ECL western Blotting Substrate (Thermo Fisher Scientific, Waltham, Mass., USA).
Previous studies have shown that PD enhances autophagy via mTOR/MAPK pathway. In order to analyze the molecular mechanisms of PD-mediated autophagy in GBM cells, several regulatory components for autophagy were examined by immunoblot analysis. It is known that mTORC1 activation, measured by S6K phosphorylation, inhibits autophagy initiation by phosphorylating the ULK1 (Ser 757). […] Furthermore, as can be confirmed in FIG. 10A, altered phosphorylation of AKT, which is a positive regulator of mTORC1, was not observed in these cells. […] In order to assess a role of the ERK phosphorylation in autophagy regulation in PD-treated U373MG cells, PD98059, which is a inhibitor of MEK (i.e., an upstream activator of ERK), was added before PD treatment and the changes in LC3-II and p62 levels were examined by western blotting.

cell-surface LDLR = test: Cell surface LDLR analysis by flow cytometry, GBM cells; assay type: cell-based, human; settings: PD 10 μM or U18666a 1 μM, 24 hours
Protocol: FIGS. 16A to 16D show the results that PD increases the expression of LDLR on cell surfaces in GBM cells. […] GAPDH was used as a loading control. […] GAPDH was used as a loading control.
Cells treated as described in FIG. 16 were separated from plates and resuspended in PBS. After washing with 1% BSA in PBS, the cells were incubated with a primary antibody against human LDLR (Abcam) for 30 minutes. Then, the cells were washed before incubation with an Alexa-Fluor 488-conjugated secondary antibody (Invitrogen) for 30 minutes. The stained cells were washed and resuspended. Fluorescence was analyzed by a FACScalibur flow cytometer (Becton Dickinson, San Jose, Calif., USA) using CellQuest™ software.
Brain is the most cholesterol-rich organ of the body, containing about 20% of total body cholesterol. […] As can be confirmed in FIG. 16A, in consistent with these reports, the LDLR protein level was markedly elevated in U87MG and U373MG cells relative to normal human astrocytes. […] Then, the cell surface expression of LDLR was confirmed by flow cytometry.

U87MG and U373MG cells [2] = test: Cell morphology (vacuole formation) under optical microscope, GBM cells; assay type: cell-based, human; settings: 10 μM PD, 24 hours
Protocol: FIGS. 6A and 6B show the results that PD induces a decrease in cell viability and vacuole formation. […] Data shown represent the means of quintuplicate measurements which were repeated three times. The results are presented as a percentage of control (means±SD).
Inhibition of autophagy has been reported to cause cancer cell death. Therefore, the cytotoxic effects of PD on U87MG, U373MG, and normal astrocytes were examined. After treating these cells with various doses of PD for 48 hours, their cell viability was analyzed by WST1 assays. […] As can be confirmed in FIG. 6B, morphological changes were also visualized by an optical microscope after exposure of GBM cells to 10 μM PD for 24 hours.

U87MG and U373MG cells [3] = test: Cholesterol cell-based detection assay (filipin III staining) in GBM cells; design: species or system human; settings: PD 10 μM or U18666a 1 μM, 24 hours
Protocol: FIGS. 15A and 15B show the results that PD promotes accumulation of cholesterol in lysosomes. Cells were treated with DMSO, PD (10 μM), or U18666a (1 μM) for 24 hours. […] Total cholesterol levels are expressed in cholesterol (μg) per protein (mg) of cell lysate and are shown as means±SD from two independent experiments.
Cells grown on coverslips were treated with the materials. Then, the cells were fixed with 4% PFA at room temperature for 10 minutes. The solution of Filipin III (Cayman) was added for staining of […] cholesterol and the samples were incubated in a dark room for 30 minutes. The images were examined under a Zeiss laser confocal microscope.
The present inventors concluded that PD inhibits the maturation of autophagosome into autolysosomes by inhibiting lysosomal degradation and an autophagosome-lysosome fusion in GBM cells. […] To examine whether the defect in the autophagosome-lysosome fusion by PD is due to altered intracellular cholesterol levels, the PD-treated GBM cells were stained with filipin-III, which is a fluorescent dye that binds to cholesterol. […] As can be confirmed in FIG. 14A, this filipin-III staining pattern is very similar to that found in GBM cells treated with U18666A, implying that PD blocks cholesterol release from lysosome and accumulates cholesterol in lysosomes.

C[C@@H]1O[C@@H](O[C@H]2[C@H](OC(=O)[C@]34CCC(C)(C)C[C@H]3C3=CC[C@@H]5[C@@]6(C)C[C@H](O)[C@H](O[C@@H]7O[C@H](CO)[C@@H](O)[C@H](O)[C@H]7O)C(CO)(CO)[C@@H]6CC[C@@]5(C)[C@]3(C)C[C@H]4O)OC[C@H](O)[C@@H]2O)[C@H](O)[C@H](O)[C@H]1O[C@@H]1OC[C@@H](O)[C@H](O[C@@H]2OC[C@](O)(CO)[C@H]2O)[C@H]1O [PD, platycodin D]
fold increase of GFP-LC3 puncta per cell vs DMSO (U373 cells): 8.9 fold
GFP-LC3 puncta per cell (U373 cells; mean±SD): 32.84±3.98
altered phosphorylation of AKT [1]: not observed
phosphorylation levels of JNK vs control cells [1]: no significant difference
phosphorylation of S6K and ULK1 [1]: no alteration
Beclin-1 and ATG7 protein levels ([1]; both cells): no significant changes
cell surface expression of LDLR (cell-surface LDLR): shift of the FL-1 histogram peak toward right
cell morphology (cytoplasmic vacuoles) (U87MG and U373MG cells [2]): exhibited cytoplasmic vacuoles
cellular cholesterol distribution (filipin-III staining) (U87MG and U373MG cells [3]): induces cholesterol accumulation within intracellular vesicles
